Results on 6 compounds are retold here after ChEMBL document CHEMBL4219188, “Design, synthesis, neuroprotective, antibacterial activities and docking studies of novel thieno[2,3-d]pyrimidine-alkyne Mannich base and oxadiazole hybrids” (Bioorg Med Chem Lett, 2018).

Each structure is given as a SMILES string. Values after ≈ are worked out from the molar mass of the structure shown.

A short description of data set [1]: Cytotoxicity against rat PC12 cells assessed as cell viability at CC50 after 24 hrs by MTT assay relative to control. Format: cell-based, PC-12. The note with it: read-out: Activity. On the technique in general: Tetrazolium dyes change colour on reduction, which living cells bring about.
Data set [2] deals with PC-12. Nature of the data set: Neuroprotective activity against H2O2-induced cytotoxicity in rat PC12 cells assessed as increase in cell viability pretreated for 24 hrs followed by H2O2 addition by MTT assay. Format: functional, cell-based.
Data set [3] relates to Staphylococcus aureus. The experiment in a line: Antibacterial activity against Staphylococcus aureus after 24 hrs by UV-vis spectrophotometric method. Format: functional.
The subject of data set [4] is Pseudomonas aeruginosa. Nature of the data set: Antibacterial activity against Pseudomonas aeruginosa assessed as diameter of inhibition zone measured after 24 hrs by agar well diffusion method. Format: functional. For orientation: Agar diffusion results depend on both activity and mobility in agar.
Data set [5] in a line: Cytotoxicity against rat PC12 cells assessed as cell viability at MNTC after 24 hrs by MTT assay relative to control. Format: cell-based, PC-12. Conditions: read-out: Activity.
In data set [6] the test system is Staphylococcus aureus. The experiment in a line: Antibacterial activity against Staphylococcus aureus assessed as diameter of inhibition zone measured after 24 hrs by agar well diffusion method. Format: functional.
Data set [7] deals with Bacillus subtilis. Nature of the data set: Antibacterial activity against Bacillus subtilis after 24 hrs by UV-vis spectrophotometric method. Format: functional.
Data set [8] concerns PC-12. The experiment in a line: Neuroprotective activity against H2O2-induced cytotoxicity in rat PC12 cells assessed as cell viability at EC50 pretreated for 24 hrs followed by H2O2 addition by MTT assay relative to control. Format: functional.
The test system of data set [9] is Escherichia coli. The experiment in a line: Antibacterial activity against Escherichia coli assessed as diameter of inhibition zone measured after 24 hrs by agar well diffusion method. Format: functional.
A short description of data set [10]: Cytotoxicity against rat PC12 cells after 24 hrs by MTT assay. Format: cell-based, PC-12. The note with it: for MNTC at 24 h: read-out: MNCC.
The subject of data set [11] is Bacillus subtilis. Nature of the data set: Antibacterial activity against Bacillus subtilis assessed as diameter of inhibition zone measured after 24 hrs by agar well diffusion method. Format: functional.
The test system of data set [12] is Escherichia coli. Nature of the data set: Antibacterial activity against Escherichia coli after 24 hrs by UV-vis spectrophotometric method. Format: functional.
Data set [13] relates to Pseudomonas aeruginosa. The experiment in a line: Antibacterial activity against Pseudomonas aeruginosa after 24 hrs by UV-vis spectrophotometric method. Format: functional.

In the case of `Cc1ccc(-c2nnc(-c3sc4ncnc(N5CCCCC5)c4c3C)o2)cc1`, the viability at 24 h in [1] turned out to be 49.2%; in data set [5], 99.5%. For the same compound, the values for the Activity entry in the data set on PC-12 [2] and with PC-12 [8] were “Dose-dependent effect” and 74.98%, respectively. The EC50 (usually the concentration needed to bring the measured effect to its halfway point) in the data set on PC-12 [2] turned out to be 28.2 µg/mL (≈ 72 µM). In addition, the MIC – broadly, the lowest concentration found to suppress growth – was 0.0404 µg/mL (≈ 0.103 µM) against Staphylococcus aureus [3], 0.0142 µg/mL (≈ 0.0363 µM) against Bacillus subtilis [7], 0.0138 µg/mL (≈ 0.0352 µM) with Escherichia coli [12] and 0.0201 µg/mL (≈ 0.0513 µM) with Pseudomonas aeruginosa [13]. For the same compound, the “diameter of the inhibition zone (DIZ)” value turned out to be 12 mm in the data set with Pseudomonas aeruginosa [4], 14 mm with Staphylococcus aureus [6], 11 mm in the data set with Escherichia coli [9] and 17 mm in the data set with Bacillus subtilis [11]. Also, in data set [10], the CC50 (as a rule, the concentration giving 50% cytotoxicity) at 24 h is 161 µg/mL (≈ 411 µM). Moreover, in data set [10], the MNTC at 24 h stood at 110 µg/mL.

`Cc1ccc(C#N)c(N2CCN(CC#CCOC(=O)c3sc4ncnc(N5CCOCC5)c4c3C)CC2)c1`: the viability at 24 h came to 49.1% in data set [1] and 98.5% in data set [5]. In addition, the Activity entry in the data set with PC-12 [2] is “Dose-dependent effect”; in the data set with PC-12 [8] it was 74.98%. The EC50 in the data set with PC-12 [2] was determined as 41.3 µg/mL (≈ 77.9 µM). In addition, the MIC is 0.062 µg/mL (≈ 0.117 µM) against Staphylococcus aureus [3], 0.0156 µg/mL (≈ 0.0294 µM) against Bacillus subtilis [7], 0.0324 µg/mL (≈ 0.0611 µM) against Escherichia coli [12] and 0.0624 µg/mL (≈ 0.118 µM) with Pseudomonas aeruginosa [13]. Also, the “diameter of the inhibition zone (DIZ)” value in the data set with Pseudomonas aeruginosa [4] is reported as 14 mm; with Staphylococcus aureus [6], 7 mm; in the data set with Escherichia coli [9], 13 mm; in the data set with Bacillus subtilis [11], 13 mm. The compound also yielded a CC50 at 24 h in data set [10] of 146 µg/mL (≈ 275 µM). Moreover, the MNTC at 24 h in data set [10] worked out at 118 µg/mL.

Regarding `Cc1ccc(-c2nnc(-c3sc4ncnc(N5CCOCC5)c4c3C)o2)cc1`, the viability at 24 h stood at 49.2% in data set [1] and 97.6% in data set [5]. Moreover, the Activity result was “Dose-dependent effect” in the data set with PC-12 [2] and 74.2% with PC-12 [8]. In the data set on PC-12 [2], the 50% effective concentration (EC50) was determined as 26.6 µg/mL (≈ 67.6 µM). In addition, the MIC against Staphylococcus aureus [3] was 0.0546 µg/mL (≈ 0.139 µM); in the data set with Bacillus subtilis [7], 0.0464 µg/mL (≈ 0.118 µM); against Escherichia coli [12], 0.0132 µg/mL (≈ 0.0335 µM); in the data set on Pseudomonas aeruginosa [13], 0.0442 µg/mL (≈ 0.112 µM). The “diameter of the inhibition zone (DIZ)” value in the data set with Pseudomonas aeruginosa [4] came out at 14 mm; with Staphylococcus aureus [6], 18 mm; with Escherichia coli [9], 18 mm; in the data set on Bacillus subtilis [11], 15 mm. The CC50 at 24 h in data set [10] turned out to be 86.1 µg/mL (≈ 219 µM). Besides, the MNTC at 24 h in [10] was 68 µg/mL.

`Cc1c(-c2nnc(-c3ccccc3)o2)sc2ncnc(N3CCOCC3)c12`: the viability at 24 h was determined as 50.4% in [1] and 99.5% in data set [5]. Also, the values for the Activity result with PC-12 [2] and with PC-12 [8] were “Dose-dependent effect” and 76.18%, respectively. Further, the concentration for a half-maximal effect (EC50) with PC-12 [2] turned out to be 10.6 µg/mL (≈ 27.9 µM). Moreover, the MIC with Staphylococcus aureus [3] was 0.0412 µg/mL (≈ 0.109 µM); in the data set with Bacillus subtilis [7] it was 0.0366 µg/mL (≈ 0.0965 µM); against Escherichia coli [12], 0.0211 µg/mL (≈ 0.0556 µM); with Pseudomonas aeruginosa [13], 0.0186 µg/mL (≈ 0.049 µM). The “diameter of the inhibition zone (DIZ)” value is 11 mm with Pseudomonas aeruginosa [4], 16 mm in the data set on Staphylococcus aureus [6], 16 mm in the data set with Escherichia coli [9] and 12 mm in the data set with Bacillus subtilis [11]. The compound also displayed a CC50 at 24 h in data set [10] of 200 µg/mL (≈ 527 µM). The MNTC at 24 h in data set [10] stood at 160 µg/mL.

Consider `Cc1c(-c2nnc(-c3ccc([N+](=O)[O-])cc3)o2)sc2ncnc(N3CCOCC3)c12`, for which the values for the viability at 24 h in [1] and in data set [5] were 49.2% and 99.2%, respectively. For the same compound, the Activity entry was “Dose-dependent effect” in the data set on PC-12 [2] and 75.11% in the data set with PC-12 [8]. Besides, the EC50 in the data set with PC-12 [2] turned out to be 16.2 µg/mL (≈ 38.1 µM). For the same compound, the minimal inhibitory concentration (MIC) with Staphylococcus aureus [3] was determined as 0.046 µg/mL (≈ 0.108 µM); against Bacillus subtilis [7], 0.0381 µg/mL (≈ 0.0898 µM); in the data set on Escherichia coli [12], 0.0382 µg/mL (≈ 0.09 µM); against Pseudomonas aeruginosa [13], 0.0266 µg/mL (≈ 0.0627 µM). Also, the “diameter of the inhibition zone (DIZ)” value is 16 mm in the data set with Pseudomonas aeruginosa [4], 16 mm with Staphylococcus aureus [6], 16 mm in the data set on Escherichia coli [9] and 13 mm in the data set on Bacillus subtilis [11]. The compound also registered a half-maximal cytotoxic concentration (CC50) at 24 h in data set [10] of 94.2 µg/mL (≈ 222 µM). Besides, the MNTC at 24 h in [10] was 80 µg/mL.

With `COc1ccc(-c2nnc(-c3sc4ncnc(N5CCOCC5)c4c3C)o2)cc1`, the viability at 24 h in data set [1] turned out to be 51.9%; in data set [5], 98.3%. Further, the Activity result is “Dose-dependent effect” in the data set with PC-12 [2] and 75.15% in the data set on PC-12 [8]. Moreover, in the data set on PC-12 [2], the EC50 amounted to 28.2 µg/mL (≈ 68.8 µM). For the same compound, the MIC against Staphylococcus aureus [3] is 0.0132 µg/mL (≈ 0.0322 µM); against Bacillus subtilis [7], 0.0112 µg/mL (≈ 0.0274 µM); against Escherichia coli [12], 0.012 µg/mL (≈ 0.0293 µM); in the data set on Pseudomonas aeruginosa [13], 0.044 µg/mL (≈ 0.107 µM). In addition, the “diameter of the inhibition zone (DIZ)” value is on record as 16 mm in the data set on Pseudomonas aeruginosa [4], 12 mm with Staphylococcus aureus [6], 12 mm with Escherichia coli [9] and 13 mm in the data set on Bacillus subtilis [11]. For the same compound, in data set [10], the midpoint of cytotoxicity, the CC50 at 24 h, lay at 140 µg/mL (≈ 342 µM). For the same compound, the MNTC at 24 h in data set [10] worked out at 120 µg/mL.
